Earlier results as cited in article PMC4860011 (Biochemistry, 2015).

Target: bsNOS (Bacillus subtilis, UniProt O34453)
Conditions: read-out: KD of imidazole; used to convert KS,app to KS

Sequence of bsNOS (O34453 whole entry): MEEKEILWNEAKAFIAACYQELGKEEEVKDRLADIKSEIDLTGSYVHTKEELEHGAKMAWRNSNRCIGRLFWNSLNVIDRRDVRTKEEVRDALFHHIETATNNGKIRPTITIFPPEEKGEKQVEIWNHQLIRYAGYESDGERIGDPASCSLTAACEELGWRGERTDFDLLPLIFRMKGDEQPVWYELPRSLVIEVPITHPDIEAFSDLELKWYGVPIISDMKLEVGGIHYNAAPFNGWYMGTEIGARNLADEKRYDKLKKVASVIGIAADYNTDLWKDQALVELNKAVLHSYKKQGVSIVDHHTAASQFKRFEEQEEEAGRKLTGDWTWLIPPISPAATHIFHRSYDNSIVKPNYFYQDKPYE

In the case of `c1c[nH]cn1` [imidazole], the Kd is given as 384 µM.
